Source: US9845284B1, “Method of obtaining complex acidic salts of divalent metals and dicarboxylic acids” (priority 2016, dated 2017)

Assay: Incorporation of 13C-labeled dicarboxylic acid anions in metabolic processes, determined by exhalation of 13CO2 in rats
Settings: aqueous solution by pipette, amount equivalent to 1 mg of acid anion, air collected 12 hours after administration, 13C-labeled compounds
Description: The signal incorporation in metabolism was determined by exhalation of the labeled ^13C atom in the form of ^13CO2. The experiment was conducted as follows: aqueous solutions, in the amounts equivalent to 1 mg of the acids anions they contained, were administered to rats (groups of 8 individuals, each rat weighing 225-250 g) with a pipette: amber acid, sodium fumarate (fumaric acid is almost insoluble in water), aspartic acids, Ca(SucH)2, Mg(SucH)2.4H2O, Mg(AspH)2.4H2O, Zn(FumH)2.0.5H2O, Zn(FumH)2.H2O. The animals were then quickly placed in a hermetically sealed chamber. The air from the chamber was sampled in the same amount as it was pumped in the chamber. […] After that, the mass % of 13C administer was calculated in the exhaled air.

| Structure (SMILES) | mass % of 13C administered found in the exhaled air (as 13CO2) |
| --- | --- |
| O.O.O.O.O=C([O-])CCC(=O)O.O=C([O-])CCC(=O)O.[Mg+2] [Mg(SucH)2.4H2O, Acidic Magnesium Succinate] | 47.7% |
| N[C@@H](CC(=O)[O-])C(=O)O.N[C@@H](CC(=O)[O-])C(=O)O.O.O.O.O.[Mg+2] [Mg(AspH)2.4H2O, Acidic Magnesium Aspartate] | 47.4% |
| O=C([O-])/C=C/C(=O)[O-].[Na+].[Na+] [sodium fumarate, reference compound] | 97.8% |
